One series concerns myofibroblast formation. Conditions: Ajmal et al. (2003); cited from earlier work.
The conditions of series [1]: in vivo. An excerpt:
(§1) However, in some embodiments, however, higher doses of tranexamic acid are used for topical applications to account for tranexamic acid being widely distributed throughout the extracellular and intracellular compartments when given preoperatively.

The next series relates to fibrinolysis. Kind of series: prevention / reversal of fibrinolysis. Conditions: one tenth of the doses used in the non-GLP acute porcine study.
Excerpt: as §1

Take `O=S(=O)([O-])CCS.[Na+]` [MESNA, sodium 2-mercaptoethane sulfonate]: the myofibroblast formation entry in the series on myofibroblast formation was “diminish myofibroblast formation”.

On to `NC[C@H]1CC[C@H](C(=O)O)CC1` [tranexamic acid, trans-4-(aminomethyl)cyclohexanecarboxylic acid], for which the “time to reach plasma concentrations” value in series [1] fell in the range of 5 to 15 min. For the same compound, the reversing fibrinolysis result in the series on fibrinolysis is given as “effective in reversing fibrinolysis”.

The record behind these values is patent publication US12133936B2, “Surgical system and methods of use” (priority 2021, dated 2024).
